Data on two molecules can be found in paper PMC12680861, “Comparative analysis of LJ-4378 and tirzepatide in mouse models of obesity and weight regain” (Archives of Pharmacal Research, 2025).

Common to all, as to format: in vivo, C57BL/6 J male mice
Experiment [1] deals with HFD-fed mice. Nature of the experiment: Hepatic PKA signaling (immunoblot, liver). As to conditions: P-HSL/HSL, P-CREB/CREB. On the procedure:
To evaluate the anti-obesity effect in vivo, mice fed either NCD or HFD for 10 weeks were subsequently treated for up to 4 weeks. To control for injection route-related variables, all mice received both intraperitoneal (I.P.) and subcutaneous (S.C.) injections. […]
(§1) For protein extraction, we utilized PRO-RERP Protein Extraction Solution (17081, iNtRON Biotechnology, Gyeonggi-do, Korea), supplemented with […] […] Protein concentrations were determined using the Pierce BCA protein assay Kit (#23227, Thermo Fisher, Waltham, Massachusetts, USA) by measuring absorbance at 562 nm with a MultiSkan GO spectrophotometer (Thermo Fisher). The quantified proteins were loaded and separated in 12% SDS-PAGE gels and transferred to polyvinylidene difluoride (PVDF) membranes (Bio-Rad, Hercules, CA, USA). […] After secondary antibody incubation, membranes were washed 3 times with TBST and detected with the Fusion Solo chemiluminescence imaging system (Vilber Lourmat, France). EvolutionCapt (version 17.03) software and the ImageJ (National Institutes of Health, Bethesda, MD, USA) program were used for analysis and to quantify the protein level.
Western blot analysis of P-HSL/HSL and P-CREB/CREB in liver. […] Statistical significance was determined using two-way ANOVA followed by Bonferroni post hoc test.

A further experiment deals with WR mice. Nature of the experiment: WR model: glucose metabolism, gWAT inflammation, hepatic steatosis at 4 weeks post-treatment. As to conditions: for macrophage marker F4/80 and CLS formation in gWAT: 4 weeks of the weight regaining phase. The text has this:
To assess post-treatment weight rebound (WR), the mice previously treated with vehicle, LJ-4378, or TZP were maintained on HFD for an additional 4 weeks following treatment cessation. Treatment protocols for the WR groups were identical to those of the HFD groups. In total, nine experimental groups were established: NCD + CTL, NCD + LJ, NCD + TZP; HFD + CTL, HFD + LJ, HFD + TZP; and WR + CTL, WR + LJ, WR + TZP. The volume of oxygen consumed (VO2), carbon dioxide produced (VCO2), respiratory exchange ratio (RER), energy expenditure, activity, and food intake were measured with PhenoMaster (TSE Systems, Bad Homburg, Germany). Indirect calorimetry was performed under controlled conditions, with a stable ambient temperature of 24 °C and a 12 h light/12-h dark cycle. Mice fed HFD were administered vehicle, LJ-4378, or TZP for 14 days, and the last 2 days of treatment were conducted during indirect calorimetry analysis. The WR model was examined by indirect calorimetry after 2 and 4 weeks of the weight regaining phase.
For protein extraction, we utilized PRO-RERP Protein Extraction Solution (17081, iNtRON Biotechnology, Gyeonggi-do, Korea), supplemented with […] Protease Inhibitor (S8820, Sigma, St. Louis, MO, USA) and PhosSTOP phosphatase inhibitor (#4906837001, Roche, Basel, Switzerland). Protein concentrations were determined using the Pierce BCA protein assay Kit (#23227, Thermo Fisher, Waltham, Massachusetts, USA) by measuring absorbance at 562 nm with a MultiSkan GO spectrophotometer (Thermo Fisher). The quantified proteins were loaded and separated in 12% SDS-PAGE gels and transferred to polyvinylidene difluoride (PVDF) membranes (Bio-Rad, Hercules, CA, USA). Membranes were blocked in 5% bovine serum albumin or skim milk in Tris-buffered saline with 0.1% Tween 20 (TBST) for 1 h, followed by overnight incubation with primary antibodies. The next day, membranes were washed 3 times with TBST and incubated for 1 h with horseradish peroxidase (HRP)-conjugated secondary antibody: Goat anti-rabbit (1:3000, #31460, Thermo Fisher) and Goat anti-Mouse IgG (1:3000, 115–035-174, Jackson ImmunoResearch). After secondary antibody incubation, membranes were washed 3 times with TBST and detected with the Fusion Solo chemiluminescence imaging system (Vilber Lourmat, France). EvolutionCapt (version 17.03) software and the ImageJ (National Institutes of Health, Bethesda, MD, USA) program were used for analysis and to quantify the protein level.
RT-qPCR was conducted according to the method (Cho et al. [2022]). The tissue samples were lysed in TRIzol (#15596018, Thermo Fisher), and the total RNA was extracted. The extracted RNA was synthesized into cDNA using the cDNA Reverse Transcription Kit (Applied Biosystems, Waltham, MA, USA). mRNA levels were quantified using iQ SYBR Green Supermix on the CFX Connect Real-time system (Bio-rad). Relative expression levels of each gene were calculated using the […] method, with the reference housekeeping gene as follows: Peptidylprolyl isomerase A (Ppia) for adipose tissue and glyceraldehyde-3-phosphate dehydrogenase (Gapdh) for hypothalamus.
The glucose tolerance test was conducted on mice fasted for 12 h with ad libitum access to water. Mice were intraperitoneally injected with 20% D-( +)-glucose (2 g/kg body weight, #49139, Sigma), and blood glucose levels were measured at each time point using a Gluco Doctor Top meter and strip (Allmedicus, South Korea).
Adipose tissues were fixed in 10% formalin (HT50128, Sigma) for 2 days and made into paraffin slides. The deparaffinized sections were stained with ClearView Staining Hematoxylin (MA010081, BBC Biochemical, Mount Vernon, WA, USA) and Eosin Y Alcoholic (#3610, BBC Biochemical) solution. The crown-like structure formation of gonadal white adipose tissue (gWAT) and triglyceride (TG) accumulation in the liver are observed using hematoxylin and eosin staining on paraffin slides. The images were captured using Nikon Elements (NIS BR Analysis ver 5.10.00). […]

Experiment [2] has as its system HFD-fed mice. As to the kind of experiment: Immunoblot of lipolytic, thermogenic and mitochondrial proteins in BAT and iWAT; serum FFA. As to conditions: for P-HSL, P-CREB, UCP1 and COXIV levels in BAT: western blot. On the procedure:
To evaluate the anti-obesity effect in vivo, mice fed either NCD or HFD for 10 weeks were subsequently treated for up to 4 weeks. To control for injection route-related variables, all mice received both intraperitoneal (I.P.) and subcutaneous (S.C.) injections. The administration were as follows: LJ-4378 treated mice received LJ-4378, which was synthesized in our laboratory at > 95% purity (1 mg/kg/day, I.P.) (Hou et al. [2010]; Kim et al. [2022]) along with the vehicle for TZP (40 mM Tris–HCl, pH 8, S.C.); TZP treated mice received TZP (Samms et al. [2021]; Kim et al. [2022]) (LY3298176, MedChemExpress, Monmouth Junction, NJ, USA) (10 nmol/kg/day, S.C.) along with the vehicle for LJ-4378 (0.2% DMSO, I.P.); vehicle control mice received both vehicles (0.2% DMSO, I.P. and 40 mM Tris–HCl, pH 8, S.C.)
Serum free fatty acid (FFA) levels were quantification using HR Series NEFA-HR (2) (Color Reagent A (#999–34691), Solvent A (#995–34791), Color Reagent B (#991–34891), Solvent B (#993–35191), and NEFA Standard Solution (#276–76491) (FUJIFILM Wako Pure Chemicals, Osaka, Japan), following the manufacturer’s instruction.
as §1
A general note: A western blot detects proteins with antibodies after separation by electrophoresis.

For experiment [3], the system named is HFD-fed mice. As to the kind of experiment: Glucose tolerance test and fasting glucose in HFD-fed mice. As to conditions: for fasting glucose levels: 12-h fast; for glucose tolerance (intraperitoneal glucose tolerance test): 14 days treatment.

For `CCCCC#Cc1nc(N)c2ncn([C@@H]3SC[C@@H](O)[C@H]3O)c2n1` [LJ-4378], in the experiment on HFD-fed mice [1], the “phosphorylation of downstream targets of PKA in the liver” value is reported as “Neither LJ-4378 nor TZP altered the phosphorylation”. Further, the “macrophage marker F4/80 and CLS formation in gWAT” value in the experiment with WR mice is “maintained lower levels of macrophage accumulation”. In the experiment with WR mice (4 weeks post-treatment, WR), the “fasting glucose levels, versus TZP-treated group” value is given as “lower”; the “glucose clearance in glucose tolerance test, versus TZP-treated group” value is “enhanced glucose clearance”; the “hepatic triglyceride (TG) deposition, versus TZP” value is given as “significantly lower”. Also, in the experiment on WR mice (after 4 weeks of WR), the “Tnf-α and Arg1 mRNA levels in gWAT” value was “reduced Tnf-α and increased Arg1 mRNA levels were maintained”. Further, in the experiment with HFD-fed mice [2], the “UCP1 expression in BAT, LJ-4378 versus TZP” value is given as “more strongly induced”; the “P-HSL, P-CREB, UCP1 and COXIV levels in BAT” value is “elevated levels”. Further, in the experiment with HFD-fed mice [3], the fasting glucose levels entry is recorded as “significantly lower” and the “glucose tolerance (intraperitoneal glucose tolerance test)” value is “markedly enhanced”.
On to Tirzepatide [TZP, reference compound], for which the “phosphorylation of downstream targets of PKA in the liver” value in the experiment on HFD-fed mice [1] is on record as “Neither LJ-4378 nor TZP altered the phosphorylation”. In addition, the “macrophage marker F4/80 and CLS formation in gWAT” value in the experiment with WR mice was “re-elevated”. In addition, the “P-HSL, P-CREB, UCP1 and COXIV levels in BAT” value in the experiment with HFD-fed mice [2] is “elevated levels”. In the experiment with HFD-fed mice [3], the fasting glucose levels result is “significantly lower” and the “glucose tolerance (intraperitoneal glucose tolerance test)” value was “markedly enhanced”.
